# In ChEMBL document CHEMBL4414576, “Recent advancements in mechanistic studies and structure activity relationship of FoF1 ATP synthase inhibitor as antimicrobial agent” (Eur J Med Chem, 2019):
# Columns and labels:
# [1] = biological target: ATP synthase; assay: Inhibition of ATP synthase in Mycobacterium tuberculosis H37Rv; format: protein-complex assay
# [2] = system: Mycobacterium tuberculosis; assay: Antimicrobial activity against Mycobacterium tuberculosis H37Rv after 5 days; format: functional
# [3] = Inhibition of ATP synthase in Escherichia coli
# [4] = Inhibition of ATP synthase isolates from rat brain cells using succinate as substrate preincubated for 5 mins followed by substrate addition
# [5] = system: Escherichia coli; assay: Inhibition of ATP synthase in Escherichia coli relative to control; settings: concentration not given here
# [6] = system: Escherichia coli; assay: Inhibition of F1F0-ATP synthase in Escherichia coli relative to control; design: concentration or dose not given beside the values; settings: concentration not given here
# [7] = Inhibition of F1F0-ATP synthase in Escherichia coli
# [8] = species on record: Mus musculus; assay: Inhibition of mitochondrial ATP synthase isolated from Swiss albino mouse liver at 100 uM using succinate as substrate after 1 hr relative to control
# [9] = system: Mycobacterium tuberculosis; assay: Antimicrobial activity against Mycobacterium tuberculosis H37Rv; format: functional, organism-based
# [10] = Selectivity index, ratio of IC50 for ATP synthase in Mycobacterium tuberculosis H37Rv to IC50 for mitochondrial ATP synthase isolated from swiss albino mouse liver
# [11] = Inhibition of ATP synthase in Mycobacterium smegmatis; design: species or system Mycolicibacterium smegmatis
# [12] = biological target: ATP synthase (Mycobacterium tuberculosis) (UniProt P9WPU9+P9WPU5+P9WPU7+P9WPV5+P9WPS1+P9WPV1+P9WPV7+P9WPV3); assay: Inhibition of ATP synthase in Mycobacterium tuberculosis H37Rv whole cell lysate after 18 hrs at 5X of MIC relative to control; format: subcellular
# [13] = Selectivity index, ratio of CC50 for human HepG2 cells to MIC of Mycobacterium tuberculosis H37Rv; format: toxicity
# [14] = system: Escherichia coli; assay: Inhibition of F1F0-ATP synthase in Escherichia coli after 60 mins relative to control; design: concentration or dose not given beside the values
# [15] = system: Streptococcus pneumoniae; assay: Antimicrobial activity against Streptococcus pneumoniae ATCC 49619; format: functional
# [16] = system: Mycobacterium tuberculosis H37Rv; assay: Inhibition of F0F1-ATP synthase in Mycobacterium tuberculosis H37Rv at […] using succinate as substrate preincubated for 10 mins followed by substrate addition by luciferase reporter gene assay relative to control
# [17] = system: Staphylococcus aureus; assay: Antimicrobial activity against Staphylococcus aureus ATCC 29213; format: functional
# [18] = Inhibition of F1F0-ATP synthase in Escherichia coli after 60 mins
# [19] = system: Saccharomyces cerevisiae; assay: Inhibition of F1F0-ATP synthase in yeast relative to control; settings: concentration not given here
# [20] = system: Pseudomonas aeruginosa; assay: Antimicrobial activity against Pseudomonas aeruginosa after 1 to 5 days by two-fold dilution; format: functional, organism-based
# [21] = system: Escherichia coli; assay: Antimicrobial activity against Escherichia coli after 1 to 5 days by two-fold dilution; format: functional, organism-based
# [22] = system: Staphylococcus aureus; assay: Antimicrobial activity against Staphylococcus aureus after 1 to 5 days by two-fold dilution; format: functional, organism-based
# [23] = system: Mycolicibacterium smegmatis; assay: Antimicrobial activity against Mycobacterium smegmatis after 1 to 5 days by two-fold dilution; format: functional, organism-based
# [24] = system: Bacillus subtilis; assay: Antimicrobial activity against Bacillus subtilis after 1 to 5 days by two-fold dilution; format: functional, organism-based
# [25] = Selectivity index, ratio of CC50 for African green monkey Vero cells to IC50 of Mycobacterium tuberculosis H37Rv; format: toxicity; settings: read-out: Ratio IC50
molecule,measurement,setting,value
CCN(CC)Cc1cc(N(c2cc(C)nc3cc(Cl)ccc23)S(=O)(=O)c2cc(C)cc(C)c2)ccc1O,IC50,[1],360 to 1830 nM
same,MIC,[2],6.25 µg/mL
Oc1ccc(/C=C/c2cc(O)cc(O)c2)cc1 [RESVERATROL],IC50,[3],94 µM
same,IC50,[4],19 µM
same,inhibition,[5],40%
Oc1cccc(/N=C/c2ccccc2O)c1,inhibition,[6],85%
same,IC50,[7],5.25 µM
CC1(C)CC(=O)C(=CNc2ccccc2O)C(=O)C1,inhibition,[8],25%
same,MIC,[9],2 µg/mL
same,Ratio IC50,[10],11.6
same,IC50,[11],4 µM
same,inhibition,[12],15 to 30%
same,selectivity ratio,[13],20
C[C@@H]1O[C@@H](OC[C@H]2O[C@@H](Oc3c(-c4ccc(O)c(O)c4)oc4cc(O)cc(O)c4c3=O)[C@H](O)[C@@H](O)[C@@H]2O)[C@H](O)[C@H](O)[C@H]1O,inhibition,[14],40 to 60%
O=[N+]([O-])c1ccc(/N=C/c2ccccc2O)c(O)c1,inhibition,[6],100%
same,IC50,[7],5 µM
O=c1cc(-c2ccc(O)c(O)c2)oc2cc(O)cc(O)c12,inhibition,[14],0 to 20%
COc1ccc(CC[C@@](O)(CCN(C)C)[C@@H](c2ccccc2)c2cc3cc(Br)ccc3nc2OC)cc1,MIC,[15],0.25 µg/mL
OC(COC(c1ccccc1)c1cccc2ccccc12)CN1CCN(c2ccccc2)CC1 (stereo not drawn),inhibition,[16],91%
Oc1ccc(/C=N/c2cccc(O)c2)cc1,inhibition,[6],100%
same,IC50,[7],9 µM
COc1nc2ccc(Br)cc2cc1[C@@H](c1ccccc1)[C@@](O)(CCN(C)C)c1cccc2ccccc12 [BEDAQUILINE],MIC,[9],3.6 µg/mL
same,IC50,[11],6.47 µM
same,selectivity ratio,[13],> 20000
O=c1c(O[C@@H]2O[C@H](CO)[C@@H](O)[C@H](O)[C@H]2O)c(-c2ccc(O)c(O)c2)oc2cc(O)cc(O)c12 [ISOQUERCETIN],IC50,[3],71 µM
same,inhibition,[5],40%
O=c1cc(-c2ccccc2)oc2cc(O)cc(O)c12,inhibition,[14],40 to 60%
Oc1ccc(/N=C/c2ccccc2O)cc1,inhibition,[6],100%
same,IC50,[7],5 µM
Oc1ccccc1/C=N/c1ccccc1O,inhibition,[6],95%
same,IC50,[7],7 µM
CCN(CC)Cc1cc(N(c2cc(C)nc3cc(Cl)ccc23)S(=O)(=O)c2ccc(Cl)cc2)ccc1O,IC50,[1],360 to 1830 nM
same,MIC,[2],6.25 µg/mL
CCN(CC)Cc1cc(N(c2cc(C)nc3cc(Cl)ccc23)S(=O)(=O)c2ccc(Cl)s2)ccc1O,IC50,[1],360 to 1830 nM
same,MIC,[2],6.25 µg/mL
C[C@H]1COc2c(N3CCN(C)CC3)c(F)cc3c(=O)c(C(=O)O)cn1c23.C[C@H]1COc2c(N3CCN(C)CC3)c(F)cc3c(=O)c(C(=O)O)cn1c23.O [LEVOFLOXACIN],MIC,[17],0.25 µg/mL
CC(N)C12CC3CC(CC(C3)C1)C2 (stereo not drawn) [RIMANTADINE],inhibition,[14],100%
same,IC50,[18],2 mM
COc1cc(=O)oc(/C=C/C=C/C=C/C(C)=C/[C@]2(C)O[C@H](C)[C@](C)(O)[C@H]2O)c1C,inhibition,[19],85%
Oc1cccc(O)c1,inhibition,[6],20%
Oc1cc(O)cc(/C=C/c2ccc(O)c(O)c2)c1 [PICEATANNOL],IC50,[3],14 µM
same,IC50,[4],8 µM
same,inhibition,[5],100%
Oc1cccc(/C=N/c2cccc(O)c2)c1,inhibition,[6],100%
same,IC50,[7],2.25 µM
NNC(=O)c1ccncc1,inhibition,[16],99%
SILYMARIN,IC50,[18],0.11 mM
FC(F)(F)Oc1cccc(CNCCNC2C3CC4CC(C3)C2C4)c1 (stereo not drawn),MIC,[20],12.5 µg/mL
same,MIC,[21],6.25 µg/mL
same,MIC,[22],6.25 µg/mL
same,IC50,[23],20 µM
same,MIC,[24],6.25 µg/mL
COc1nc2ccc(Br)cc2cc1[C@H](c1ccccc1)[C@](O)(CCCCN(C)C)CCc1ccccc1,MIC,[15],0.25 µg/mL
same,MIC,[17],2 µg/mL
O=C(CNC1CCCCC1)N(c1ccccc1)c1ccccc1,IC50,[9],14 µM
same,selectivity ratio,[25],21.1
COc1cccc(N2CCN(CC(O)COC(c3ccccc3)c3cccc4ccccc34)CC2)c1 (stereo not drawn),inhibition,[16],99%
COc1ccc(-c2cc(=O)c3c(O)cc(O[C@@H]4O[C@H](CO[C@@H]5O[C@@H](C)[C@H](O)[C@@H](O)[C@H]5O)[C@@H](O)[C@H](O)[C@H]4O)cc3o2)cc1O,inhibition,[14],40 to 60%
